The term fraction unbound denotes free concentration divided by total concentration. One may read the IC50 as the point on the concentration scale where inhibition reaches its midpoint.

Data set [1] is described as follows: Serum/plasma protein binding (ultrafiltration, LC/MS-MS). The data set is classed as in vitro ADME. The settings on record: pH 7.4, 37° C., Centrifree ultrafiltration. The procedure:
Binding of test compounds was performed according to procedures described in Borga et al (Journal of Pharmacokinetics & Biopharmaceutics, 1997, 25(1):63-77) and Godolphin et al (Therapeutic drug monitoring, 1983, 5:319-23). Duplicate samples of 10 μl of test compound stock solution (1 μg/μL) was spiked into 1 mL of either buffer or serum/plasma adjusted to pH 7.4 using CO2 at room temperature. Samples were equilibrated by incubating vials in a water bath with shaker at 37° C. for 15 minutes. 200 μl of the buffer spiked sample was saved as prefiltrate. 800 μl of buffer spiked samples and 1 ml of serum spiked samples were centrifuged at 1500 g, 37° C., for 30 minutes in a Centrifree ultrafiltration device (Amicon Inc.). Pre and post-filtrates were then analyzed by LC/MS-MS and percent binding of test compound to serum/plasma protein was determined from the post and prefiltrates accounting for any non-specific binding determined from the buffer control.

The target of data set [2] is recombinant human LFA-1 (LFA-1:ICAM-1) (Homo sapiens, UniProt P05107+P20701). Put plainly: PLM2 antibody capture LFA-1:ICAM-1 assay.
Sequence of recombinant human LFA-1 (LFA-1:ICAM-1) (P20701 26-1170): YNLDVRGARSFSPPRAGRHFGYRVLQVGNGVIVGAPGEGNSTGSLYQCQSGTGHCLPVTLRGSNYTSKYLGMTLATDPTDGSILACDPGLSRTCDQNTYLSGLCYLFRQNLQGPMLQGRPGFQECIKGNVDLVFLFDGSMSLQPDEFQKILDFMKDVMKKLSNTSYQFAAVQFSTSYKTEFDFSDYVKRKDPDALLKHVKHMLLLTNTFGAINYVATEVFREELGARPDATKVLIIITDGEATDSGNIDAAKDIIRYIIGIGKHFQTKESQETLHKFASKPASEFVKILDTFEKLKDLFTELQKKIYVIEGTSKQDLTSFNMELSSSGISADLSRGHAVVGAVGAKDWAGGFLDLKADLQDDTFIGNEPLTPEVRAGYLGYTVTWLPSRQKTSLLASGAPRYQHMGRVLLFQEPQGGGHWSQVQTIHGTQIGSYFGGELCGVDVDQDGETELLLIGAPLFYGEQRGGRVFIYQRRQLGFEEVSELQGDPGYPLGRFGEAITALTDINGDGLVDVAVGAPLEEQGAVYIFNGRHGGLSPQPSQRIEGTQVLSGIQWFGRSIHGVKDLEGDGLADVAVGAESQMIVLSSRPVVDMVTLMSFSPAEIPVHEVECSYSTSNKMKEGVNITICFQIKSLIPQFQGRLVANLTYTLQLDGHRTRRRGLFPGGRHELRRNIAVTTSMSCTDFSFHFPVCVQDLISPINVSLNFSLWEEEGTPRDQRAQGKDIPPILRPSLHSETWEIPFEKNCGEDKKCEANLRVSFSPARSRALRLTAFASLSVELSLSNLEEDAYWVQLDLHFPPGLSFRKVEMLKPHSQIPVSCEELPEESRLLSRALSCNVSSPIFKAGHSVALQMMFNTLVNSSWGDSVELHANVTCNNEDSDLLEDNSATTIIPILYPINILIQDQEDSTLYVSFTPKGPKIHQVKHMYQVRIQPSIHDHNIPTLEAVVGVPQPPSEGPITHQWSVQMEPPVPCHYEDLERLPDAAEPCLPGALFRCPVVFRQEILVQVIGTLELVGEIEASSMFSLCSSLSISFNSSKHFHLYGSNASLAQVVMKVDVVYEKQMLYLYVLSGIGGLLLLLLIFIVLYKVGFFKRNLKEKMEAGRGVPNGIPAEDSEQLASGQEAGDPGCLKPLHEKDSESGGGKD
Sequence of recombinant human LFA-1 (LFA-1:ICAM-1) (P05107 23-769): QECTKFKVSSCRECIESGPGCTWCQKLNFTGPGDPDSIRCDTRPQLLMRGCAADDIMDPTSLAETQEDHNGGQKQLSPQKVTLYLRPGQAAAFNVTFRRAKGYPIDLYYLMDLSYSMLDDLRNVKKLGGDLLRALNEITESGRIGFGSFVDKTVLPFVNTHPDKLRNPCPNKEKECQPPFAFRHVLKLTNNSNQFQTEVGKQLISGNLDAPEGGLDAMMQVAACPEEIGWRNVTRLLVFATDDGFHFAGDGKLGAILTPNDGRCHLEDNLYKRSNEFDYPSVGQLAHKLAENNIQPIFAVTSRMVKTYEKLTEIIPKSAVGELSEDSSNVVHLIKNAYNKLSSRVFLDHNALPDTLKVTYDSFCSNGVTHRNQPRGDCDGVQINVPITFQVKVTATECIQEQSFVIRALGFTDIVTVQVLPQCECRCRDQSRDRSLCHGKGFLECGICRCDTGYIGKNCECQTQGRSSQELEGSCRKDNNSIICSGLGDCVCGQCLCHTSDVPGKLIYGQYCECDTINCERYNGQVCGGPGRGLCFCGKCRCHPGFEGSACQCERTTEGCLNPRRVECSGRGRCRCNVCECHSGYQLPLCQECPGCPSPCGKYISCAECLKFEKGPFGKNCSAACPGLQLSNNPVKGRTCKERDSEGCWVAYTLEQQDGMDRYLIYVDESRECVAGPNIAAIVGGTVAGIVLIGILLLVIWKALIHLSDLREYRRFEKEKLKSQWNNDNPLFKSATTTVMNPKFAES
Description: The plates are blocked with 0.5% BSA in assay buffer (0.02M Hepes, 0.15M NaCl, and 1 mM MnCl2) 1 h at room temperature. Plates are washed with 50 mM Tris pH 7.5, 0.1M NaCl, 0.05% Tween 20 and 1 mM MnCl2. Purified full-length recombinant human LFA-1 protein is diluted to 2 μg/ml in assay buffer and 100 μl/well is added to plates and incubated 1 h at 37° C. Plates are washed 3×. 50 μl/well inhibitors, appropriately diluted in assay buffer, are added to a 2× final concentration and incubated for 30′ at 37° C. […] Plates are washed and bound ICAM-Ig is detected with Goat anti-HuIgG(Fc)-HRP for 1 h at room temperature. Plates are washed and developed with 100 μl/well TMB substrate for 5-10′ at room temperature.

`O=C(/C=C/c1ccco1)NCc1cc(Cl)c(C(=O)N[C@@H](CNC(=O)[C@H]2C[C@@H](O)CN2)C(=O)O)c(Cl)c1` [Compound 12] had a fraction unbound at 15 min, 10 µg/mL in data set [1] of 0.205. Further, the half-maximal inhibitory concentration (IC50) in data set [2] stood at 2 nM.
For `O=C(/C=C/c1ccco1)NCc1cc(Cl)c(C(=O)N[C@@H](CNC(=O)[C@H]2C[C@H](O)CN2)C(=O)O)c(Cl)c1` [Compound 10] the same measures were 0.341 and 3 nM.
Molecule `O=C(/C=C/c1ccco1)NCc1cc(Cl)c(C(=O)N[C@@H](CNC(=O)[C@@H]2CSCN2)C(=O)O)c(Cl)c1` [Compound 6] gave a fraction unbound at 15 min, 10 µg/mL in data set [1] of 0.0457. The IC50 in data set [2] stood at 7 nM.
For `O=C(/C=C/c1ccco1)NCc1cc(Cl)c(C(=O)N[C@@H](CNC(=O)[C@@H]2CCCN2)C(=O)O)c(Cl)c1` [Compound 4] the same measures were 0.171 and 4 nM.
Turning to `O=C(N[C@@H](CNC(=O)[C@H]1C[C@@H](O)CN1)C(=O)O)c1c(Cl)cc(C(O)CCc2cccc(Cl)c2)cc1Cl` (stereo partly drawn) [Compound 37], the fraction unbound at 15 min, 10 µg/mL in data set [1] was 0.0681.
For the molecule `O=C(/C=C/c1ccco1)NCc1cc(Cl)c(C(=O)N[C@@H](CNC(=O)[C@@H]2CSC(=O)N2)C(=O)O)c(Cl)c1` [Compound 38], the fraction unbound at 15 min, 10 µg/mL in data set [1] is 0.0671. Moreover, in data set [2], the IC50 worked out at 12 nM.
For `CC1CC[C@@H](C(=O)NC[C@H](NC(=O)c2c(Cl)cc(CNC(=O)/C=C/c3ccco3)cc2Cl)C(=O)O)N1` (stereo partly drawn) [Compound 44] the same measures were 0.17 and 2 nM.
For `C[C@H]1CCN[C@@H]1C(=O)NC[C@H](NC(=O)c1c(Cl)cc(CNC(=O)/C=C/c2ccco2)cc1Cl)C(=O)O` [Compound 13] the same measures were 0.224 and 4 nM.
Regarding `CN(C[C@H](NC(=O)c1c(Cl)cc(CNC(=O)/C=C/c2ccco2)cc1Cl)C(=O)O)C(=O)[C@@H]1CCCN1` [Compound 35], in data set [1], the fraction unbound at 15 min, 10 µg/mL was 0.486. Also, in data set [2], the IC50 was found to be 9 nM.
For `O=C(/C=C/c1ccco1)NCc1cc(Cl)c(C(=O)N[C@@H](CNC(=O)C2CCNCC2)C(=O)O)c(Cl)c1` [Compound 3] the same measures were 0.192 and 11 nM.
For `O=C(/C=C/c1ccco1)NCc1cc(Cl)c(C(=O)N[C@@H](CNC(=O)[C@H]2CCCN2)C(=O)O)c(Cl)c1` [Compound 5] the same measures were 0.169 and 8 nM.
For `O=C(/C=C/c1ccco1)NCc1cc(Cl)c(C(=O)N[C@@H](CNC(=O)C2CCCO2)C(=O)O)c(Cl)c1` (stereo partly drawn) [Compound 51] the same measures were 0.072 and 5 nM.
In the case of `O=C(N[C@@H](CNC(=O)[C@@H]1CSCN1)C(=O)O)c1c(Cl)cc(C(O)CCc2cccc(O)c2)cc1Cl` (stereo partly drawn) [Compound 36], the fraction unbound at 15 min, 10 µg/mL in data set [1] is 0.0716. In addition, the IC50 in data set [2] is 2 nM.
For `O=C(/C=C/c1ccco1)NCc1cc(Cl)c(C(=O)N[C@@H](CNC(=O)[C@H]2NCC[C@@H]2O)C(=O)O)c(Cl)c1` [Compound 41] the same measures were 0.152 and 3 nM.
For `O=C(/C=C/c1ccco1)NCc1cc(Cl)c(C(=O)N[C@@H](CNC(=O)[C@@H]2CCCCN2)C(=O)O)c(Cl)c1` [Compound 9] the same measures were 0.228 and 2 nM.
Turning to `O=C(/C=C/c1ccco1)NCc1cc(Cl)c(C(=O)N[C@@H](CNC(=O)C2CSCN2)C(=O)O)c(Cl)c1` (stereo partly drawn) [Compound 42], in data set [1], the fraction unbound at 15 min, 10 µg/mL was 0.086. For the same molecule, the IC50 in data set [2] stood at 3 nM.
For `CC(=O)N1CCC[C@H]1C(=O)NC[C@H](NC(=O)c1c(Cl)cc(CNC(=O)/C=C/c2ccco2)cc1Cl)C(=O)O` [Compound 17] the same measures were 0.154 and 3 nM.
For `O=C(/C=C/c1ccco1)NCc1cc(Cl)c(C(=O)N[C@@H](CNC(=O)[C@@H]2CSC(=S)N2)C(=O)O)c(Cl)c1` [Compound 40] the same measures were 0.0307 and 2 nM.
Turning to `O=C(/C=C/c1ccco1)NCc1cc(Cl)c(C(=O)N[C@@H](CNC(=O)[C@H]2CSCN2)C(=O)O)c(Cl)c1` [Compound 15], the fraction unbound at 15 min, 10 µg/mL in data set [1] was 0.0749. Further, the IC50 in data set [2] stood at 4 nM.
For `O=C(/C=C/c1ccco1)NCc1cc(Cl)c(C(=O)N[C@@H](CNC(=O)[C@@H]2C[C@@H](O)CN2)C(=O)O)c(Cl)c1` [Compound 14] the same measures were 0.274 and 2 nM.

Source of the values: US6872735B2, “LFA-1 antagonist compounds” (Genentech, Inc., priority 2000, dated 2005).
